This note sets out measurements from PMC5213423, “Identification of a Drug Targeting an Intrinsically Disordered Protein Involved in Pancreatic Adenocarcinoma” (Scientific Reports, 2017).

The test system of assay [1] is human PDAC-derived xenografts (MiaPaCa-2). The assay is described as follows: Subcutaneous MiaPaCa-2 xenograft in NMRI-Nude mice. It is filed as in vivo. The conditions noted are these: for Tumor volume: start 400 mm^3. The method, then: NMRI-Foxn1^nu/Foxn1^nu mice were provided by Janvier Laboratories (Le Genest-Saint-Isle, France). Mice were kept within the Experimental Animal House of the Centre de Cancérologie de Marseille (CRCM) pôle Luminy. All experimental protocols were carried out in accordance with nationally approved guidelines for the treatment of laboratory animals. All experimental procedures on animals were approved by the Comité d’éthique de Marseille numéro 14. Ten millions MiaPaCa-2 cells were inoculated subcutaneously and mice were separated into 3 groups of 6 subjects each. Mice were treated daily with either physiologic serum, 5 mg/kg or 10 mg/kg of the compound when the tumor volume reached approximately 400 mm^3. Every 5 days, the weight and the tumors volumes were measured. Mice were sacrificed after 35 days of treatment.

The target of a further assay is T1, NUPR1/MSL1 interaction (Homo sapiens, UniProt O60356).
T1 construct: expressed in transfected cells; host or cells: MiaPaCa-2 (human pancreatic cancer cells)
T1 sequence (O60356 1-82): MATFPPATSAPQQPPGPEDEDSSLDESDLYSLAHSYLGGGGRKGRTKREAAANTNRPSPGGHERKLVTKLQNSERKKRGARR
The assay is described as follows: Proximity ligation assay (PLA) of NUPR1-MSL1 interaction after Oxaliplatin-induced DNA damage. It is filed as cell-based. The conditions noted are these: 1 to 20 μM compound, Oxaliplatin 10 μM, 24 h. The method, then:
MiaPaCa-2 cells were seeded on coverslips and transfected with 300 ng of DNA (NUPR1-Flag and MSL1-V5) using Fugene HDTM transfection reagent (Roche, Meylan, France). […] Cells were washed twice in PBS, fixed, permeabilized and saturated for 45 min before immunostaining with DuoLink kit (Olink Bioscience, Uppsala, Sweden) following the manufacturer’s protocol. Image acquisition was carried out on a Nikon Eclipse 90i fluorescence microscope (Nikon Instruments, Amsterdam, Netherlands). Images at 40x magnification were analyzed with ImageJ to count the number of red dots which represent NUPR1/MSL1 binding. The reduction in the number of red fluorescent dots is proportional to the inhibition of MSL1-NUPR1 interaction by Compound-15.

In assay [2] the test system is MiaPaCa-2 cells. The assay is described as follows: Real-time iCELLigence impedance proliferation assay. It counts as cell-based, human. As to conditions: 10 μM Compound-15 vs 60 nM Gemcitabine, 4 μM Oxaliplatin. As to the method:
Cell proliferation was monitored in real-time using the […] system E-Plate (ACEA Biosciences, San Diego, CA). Forty thousand MiaPaCa-2 cells were seeded in each well with fresh DMEM. […] Cells were incubated for another 3 days. The impedance value of each well was automatically monitored by the […] system for 3 days and expressed as a CI (cell index) value.

Assay [3] relates to MiaPaCa-2 cells. Nature of the assay: Colony formation in soft agar (clonogenicity). It is filed as cell-based, human. The conditions noted are these: 10 μM compound. The method, then: Colony formation assay was performed in order to measure the in vitro survival ability of a single cell to grow into a colony in an anchorage-independent growth environment. Briefly, after treating MiaPaCa-2 cells with either the compounds or DMSO (as control) for 24 and 48 h, they were seeded in DMEM complete media at a density of 7 × 10^3 cells in 6-well plates containing a top layer of 0.7% agar and a bottom layer of 1% agar. Plates were incubated at 37 °C for 3 to 4 weeks and then stained with 0.2% crystal violet. […] Comparisons of treatment outcome were tested for statistical significance by using the t-test.

Assay [4] concerns primary murine PDAC cell line WT. The assay is described as follows: Cell viability assay, primary murine PDAC cells, NUPR1 wild-type (WT). As to conditions: 6 days. It is filed as cell-based, mouse. The method, then: (§1) MiaPaCa-2 cells were obtained from ATCC (Manassas, VA) and maintained in Dulbecco’s Modified Eagle’s Medium (DMEM) (Invitrogen, Carlsbad, CA) supplemented with 10% FBS (Foetal Bovine Serum) at 37 °C with 5% CO2. MiaPaCa-2 cells were authenticated using Short Tandem Repeat analysis (LGC Standards GmbH, Wesel, Germany). […]in reagent (Polyplus-transfection, Illkirch, France) was used to perform siRNA transfections according to the manufacturer’s protocol. Scrambled siRNA targeting no known gene sequence was used as negative control. The sequence of NUPR1-specific siRNA-nupr1 r([…])dTdT was previously reported. Knock-out cells were established in the laboratory from a mice model of pancreatic cancer, known as Pdx1-Cre-Kras^G12D/INK4^flox/flox and for those nupr1 was deleted. These cells have been supplied with DMEM (4.5 g/L) and Glutamax (Life Technologies, Carlsbad, CA), supplemented with 10% of FBS.

Assay [5] concerns MiaPaCa-2 cells. Nature of the assay: Cell viability assay (CellTiter-Blue), MiaPaCa-2. As to conditions: Homo sapiens, MIA PaCa-2, 144 h, read-out: Cell viability. Background: Resazurin is reduced to fluorescent resorufin, in cell work by metabolically active cells.
Experimental: Cells (10000 cells/well) were plated in 96-well plates with DMEM. Twenty-four hours later, the media were supplemented with 10 μM of Compound and were incubated for another additional six days. Each experiment was performed in duplicate and repeated at least three times. Cell viability was estimated after addition of the CellTiter-Blue viability reagent (Promega, Madrid, Spain) for 1 h according to the protocol provided by the supplier. Cell viability was measured on day 6 and normalized regarding untreated cells rates. Statistical significance was assumed at a p-value lower than 0.05.
Assay [6] has as its target T2, NUPR1 (Homo sapiens, UniProt O60356).
T2 construct: made in house; host or cells: E. coli
T2 sequence (O60356 1-82): T1 sequence (O60356 1-82)
Nature of the assay: 2D 1H-15N HSQC NMR cross-peak broadening of NUPR1 upon compound addition. It counts as binding. As to conditions: NUPR1 100 μM : compound 400 μM, 25 °C, pH 4.5. As to the method: The NMR data were acquired at 25 °C, pH 4.5 (acetate buffer), on a Bruker Avance DRX-500 spectrometer equipped with a triple-resonance probe and z-gradients. All spectra were referenced to external TSP.
The 2D ^1H-^15N heteronuclear single-quantum coherence (HSQC) spectra[42] were acquired in the phase sensitive mode for isolated ^15N-labelled NUPR1 (100 μM) or ^15N-labelled NUPR1 (100 μM) in the presence of the corresponding compound (400 μM). […] Frequency discrimination in the indirect dimensions was achieved by using the echo/antiecho-TPPI method. […] The carrier of the ^1H dimension was set at 8.00 ppm, and that of ^15N at 120 ppm. The spectral widths used were 10 and 35 ppm in the ^1H and ^15N dimensions, respectively. Water signal was suppressed with the WATERGATE sequence. Data were zero-filled to double the number of original points in both dimensions, apodized with shifted squared sine-bell functions in the two dimensions and Fourier transformed with the program TopSpin 1.2. Assignments were taken from those previously reported. The intensity of the signals from each row in the HSQC spectra was measured by using TopSpin 2.1 taking into account, as an internal reference, the intensity of the last residue of NUPR1. Only differences in intensity of a particular residue between spectra of the complex (NUPR1:Compound) and that of isolated NUPR1 larger than 10%, were considered significant.

The target of assay [7] is T2, NUPR1. Nature of the assay: Isothermal titration calorimetry (ITC) of compound binding to NUPR1. The conditions noted are these: 25 °C. The method, then: Ligand binding to NUPR1 was determined with a high sensitivity isothermal titration calorimeter Auto-iTC200 (MicroCal–Malvern Instruments, Malvern UK). Protein samples and reference solutions were properly degassed and carefully loaded into the calorimetric cells to avoid bubble formation during stirring. Experiments were performed with freshly prepared buffer-exchanged protein solutions, at 25 °C in 20 mM sodium phosphate pH 7. NUPR1 20 μM solution in the calorimetric cell was titrated with 300–400 μM compound solution. A sequence of 19 injections of 2 μL volume was programmed with a stirring speed of 1000 rpm. The heat evolved after each ligand injection was obtained from the integral of the calorimetric signal. The heat due to the binding reaction was obtained as the difference between the reaction heat and the corresponding heat of dilution, the latter estimated as a constant value throughout the experiment, and included as an adjustable parameter in the analysis. Control experiments (compound injected into buffer) were performed under the same experimental conditions. The association constant (Ka) and the enthalpy change (ΔH) of the binding reaction were obtained through non-linear regression of experimental data to a model for a protein with a single ligand binding site. Experiments were performed in replicates and data were analyzed using in-house developed software implemented in Origin 7 (OriginLab, Northampton, MA).

In assay [8] the test system is MiaPaCa-2 cells. The assay is described as follows: Wound healing (cell migration) assay. It counts as cell-based, human. The conditions noted are these: 10 μM, after 48 h.
Experimental: Cells (10000 cells/well) were seeded in 24-well plates and grown to confluence. […] Either fresh medium with 10 μM of the corresponding compound were added or DMSO (as control). Cell migration to the wounded region was observed using an automated fluorescence inverted microscope Leica DMI 6000B with MetaMorph MM AF analysis software (Leica Microsystems, Wetzlar, Germany). Images were captured at 0, 24 and 48 h to monitor the wound healing process. The wound areas were measured using ImageJ software (NIH, Bethesda, MD). Comparisons of treatment outcome were tested for statistical significance by using the t-test. Statistical significance was assumed at a p-value lower than 0.05.
The subject of assay [9] is primary murine PDAC cell line NUPR1 KO. The assay is described as follows: Cell viability assay, primary murine PDAC cells, NUPR1 knocked-out (KO). It counts as cell-based, mouse. As to conditions: 6 days. As to the method:
as §1

Where a name gives a salt, the structure may show the parent alone.

In the case of `CN1CCN(CCCN2c3ccccc3Sc3ccc(C(F)(F)F)cc32)CC1` [Compound-15, Trifluoperazine dihydrochloride], the “Tumor volume increase compared to the control” value in assay [1] (5 mg/kg daily, two weeks) was 50%. For the same molecule, the Tumor volume amounted to 767 ± 196 mm^3 in [1] (5 mg/kg daily, two weeks) and 558 ± 152 mm^3 in [1] (10 mg/kg daily, two weeks). For the same molecule, the Tumor growth entry in [1] (10 mg/kg daily, up to 4 weeks) is “rapidly, and almost completely, stopped”. The “NUPR1 and MSL1 interaction (PLA red dots)” value on NUPR1/MSL1 interaction was “interfered in the NUPR1-MSL1 interaction”. In the assay on MiaPaCa-2 cells [2], the “Growth arrest in real-time proliferation compared with Oxaliplatin or Gemcitabine” value is “stronger growth-arrest”. Besides, in the assay on MiaPaCa-2 cells [3], the Colony formation entry was “completely inhibited colony formation”. Also, the viability (usually a read-out of living cells in per cent, often relative to untreated cells) at 10 µM in assay [4] (Mus musculus, 144 h, WT murine cells) was 35%; in the assay with MiaPaCa-2 cells [5], 26 ± 7%; in assay [9] (Mus musculus, 144 h, NUPR1 KO murine cells), 72%. Further, the NUPR1-dependent effect result in assay [4] (difference WT vs KO viability, 10 μM) is reported as “around 37%”. For the same molecule, on NUPR1 [6], the “Residues of NUPR1 with NMR-cross-peak broadening affected by binding” value is recorded as “Ala33; Thr68”. Binding at NUPR1 [7] (20 mM sodium phosphate pH 7, relative error is 20%) was characterised by a dissociation constant (Kd) of 5.2 µM. Further, the “ΔG (Gibbs energy of binding)” value at NUPR1 [7] (pH 7) is -7.2 kcal/mol. For the same molecule, the ΔH of binding on NUPR1 [7] (pH 7) is -1.1 kcal/mol. Further, at NUPR1 [7] (pH 7), the “−TΔS of binding” value is -6.1 kcal/mol. Further, the “Distance migrated compared to Compound-free cells” value in the assay on MiaPaCa-2 cells [8] came to 25%. Also, in [9] (from KO cell viability, 10 μM), the NUPR1-independent killing effect is reported as approximately 28%.
